IC50 data for ten compounds are collected here from patent US8003658B2, “Quinazoline derivatives for inhibiting cancer cell growth and method for the preparation thereof” (Hanmi Holdings Co., Ltd., priority 2004, dated 2011).

Like-named read-outs stand apart in the source and are kept apart here.

The subject of one test is A431 (ATCC: CRL-1555). Briefly: Test of cancer cell growth inhibition (SRB), A431. The conditions noted are these: read-out: IC50 A431.
The next test relates to SK-Br3 (ATCC: HTB-30). Briefly: Test of cancer cell growth inhibition (SRB), SK-Br3. Particulars: read-out: IC50 SK-Br-3.
The next test relates to SW-620 (ATCC: CCL-227). As to the kind of experiment: Test of cancer cell growth inhibition (SRB), SW-620. The conditions noted are these: Homo sapiens, SW-620, 72 h, read-out: IC50 SW-620.

In general, IC50 refers to the midpoint of a concentration-inhibition curve.

Turning to `C=CC(=O)NCCCC(=O)Nc1ccc2ncnc(Nc3ccc(Oc4ccc(C)nc4)c(C)c3)c2c1` [Example 101, 4-acryloylamino-N-{4-[3-methyl-4-(6-methyl-pyridin-3-yloxy)-phenylamino]-quinazolin-6-yl}-butyramide], the concentration for half-maximal inhibition (IC50) was 786 nM in the test on A431 (ATCC: CRL-1555) (Homo sapiens, A-431, 72 h); 21 nM in the test with SK-Br3 (ATCC: HTB-30) (Homo sapiens, SK-BR-3, 72 h); over 10000 nM in the test with SW-620 (ATCC: CCL-227).

Consider `CS(=O)(=O)CC(=O)NCCC(=O)Nc1ccc2ncnc(Nc3ccc(OCc4cccc(F)c4)c(Cl)c3)c2c1` [Example 21, N-{4-[3-chloro-4-(3-fluoro-benzyloxy)-phenylamino]-quinazolin-6-yl}-3-(2-methanesulfonyl-acetylamino)-propionamide], for which the 50% inhibitory concentration (IC50) was 455 nM with A431 (ATCC: CRL-1555) (Homo sapiens, A-431, 72 h); 16 nM with SK-Br3 (ATCC: HTB-30) (Homo sapiens, SK-BR-3, 72 h); over 10000 nM in the test with SW-620 (ATCC: CCL-227).

Turning to `C=CC(=O)NCCCC(=O)Nc1ccc2ncnc(Nc3ccc(OCc4cccc(F)c4)c(Cl)c3)c2c1` [Example 89, 4-acryloylamino-N-{4-[3-chloro-4-(3-fluoro-benzyloxy)-phenylamino]-quinazolin-6-yl}-butyramide], the IC50 is 173 nM with A431 (ATCC: CRL-1555) (Homo sapiens, A-431, 72 h); 19 nM in the test with SK-Br3 (ATCC: HTB-30) (Homo sapiens, SK-BR-3, 72 h); over 10000 nM in the test with SW-620 (ATCC: CCL-227).

Take `C=CC(=O)N1CCC[C@H]1C(=O)Nc1cc2c(Nc3ccc(OCCF)c(Cl)c3)ncnc2cc1OC` [Example 203, (2S)-1-acryloyl-pyrrolidine-2-carboxylic acid {4-[3-chloro-4-(2-fluoro-ethoxy)-phenylamino]-7-methoxy-quinazolin-6-yl}-amide]: the IC50 in the test with A431 (ATCC: CRL-1555) (Homo sapiens, A-431, 72 h) amounted to 269 nM; in the test with SK-Br3 (ATCC: HTB-30) (Homo sapiens, SK-BR-3, 72 h) it was 34 nM.

Regarding `CSCC[C@H](NC(=O)CS(C)(=O)=O)C(=O)Nc1ccc2ncnc(Nc3ccc(OCc4cccc(F)c4)c(Cl)c3)c2c1` [Example 8, (2S)—N-{4-[3-chloro-4-(3-fluoro-benzyloxy)-phenylamino]-quinazolin-6-yl}-2-(2-methanesulfonyl-acetamino)-4-methanesulfanyl-butyramide], the 50% inhibitory concentration (IC50) was 308 nM with A431 (ATCC: CRL-1555) (EGFR overexpressed A431, 72 hours, SRB) and 190 nM in the test with SK-Br3 (ATCC: HTB-30) (Erb-B2 overexpressed SK-Br3, 72 hours, SRB).

For `CN1CCN(CC(=O)NCCC(=O)Nc2ccc3ncnc(Nc4ccc(OCc5cccc(F)c5)c(Cl)c4)c3c2)CC1` [Example 64, N-{4-[3-chloro-4-(3-fluoro-benzyloxy)-phenylamino]-quinazolin-6-yl}-3-[2-(4-methyl-piperazin-1-yl)-acetylamino]-propionamide], the IC50 in the test with A431 (ATCC: CRL-1555) (Homo sapiens, A-431, 72 h) came out at 698 nM; with SK-Br3 (ATCC: HTB-30) (Homo sapiens, SK-BR-3, 72 h), 212 nM.

In the case of `C=CC(=O)N1CCC[C@H]1C(=O)Nc1cc2c(Nc3ccc4c(cnn4Cc4ccccn4)c3)ncnc2cc1OC` [Example 185, (2S)-1-acryloyl-pyrrolidine-2-carboxylic acid [7-methoxy-4-(1-pyridin-2-ylmethyl-1H-indazol-5-ylamino)-quinazolin-6-yl]-amide], the IC50 amounted to 22 nM in the test with A431 (ATCC: CRL-1555) (Homo sapiens, A-431, 72 h) and 3 nM in the test with SK-Br3 (ATCC: HTB-30) (Homo sapiens, SK-BR-3, 72 h).

Consider `C=CC(=O)N[C@@H](C)CC(=O)Nc1cc2c(Nc3ccc(OCc4ccccn4)c(Cl)c3)ncnc2cc1OC` [Example 212, (3S)-3-acryloylamino-N-{4-[3-chloro-4-(pyridin-2-ylmethoxy)-phenylamino]-7-methoxy-quinazolin-6-yl}-butyramide], for which the half-maximal inhibitory concentration (IC50) was determined as 98 nM with A431 (ATCC: CRL-1555) (Homo sapiens, A-431, 72 h) and 9 nM in the test on SK-Br3 (ATCC: HTB-30) (Homo sapiens, SK-BR-3, 72 h).

Regarding `C=CC(=O)N1C[C@H](SCC)C[C@H]1C(=O)Nc1ccc2ncnc(Nc3ccc(OCc4ccccn4)c(Cl)c3)c2c1` [Example 150, (2S,4R)-1-acryloyl-4-ethylsulfanyl-pyrrolidine-2-carboxylic acid {4-[3-chloro-4-(pyridin-2-ylmethoxy)-phenylamino]-quinazolin-6-yl}-amide], the IC50 in the test with A431 (ATCC: CRL-1555) (Homo sapiens, A-431, 72 h) turned out to be 36 nM; with SK-Br3 (ATCC: HTB-30) (Homo sapiens, SK-BR-3, 72 h), 6 nM.

As for `COCC(=O)NCCC(=O)Nc1ccc2ncnc(Nc3ccc(OCc4cccnc4)c(Cl)c3)c2c1` [Example 132-2, N-{4-[3-chloro-4-(pyridin-3-ylmethoxy)-phenylamino]-quinazolin-6-yl}-3-(2-methoxy-acetylamino)-propionamide], the concentration for half-maximal inhibition (IC50) in the test with A431 (ATCC: CRL-1555) (Homo sapiens, A-431, 72 h) worked out at 880 nM; in the test with SK-Br3 (ATCC: HTB-30) (Homo sapiens, SK-BR-3, 72 h) it was 662 nM.
